Where two headings read alike, the source gives them in different places.
Key:
LLC cells = assay: Cytotoxic effects of Ganoderma lucidum polysaccharide GLP-1 combined with cisplatin on LLC cells (MTT, absorbance at 570 nm); type: cell-based; conditions: 48 h, GLP-1 2 mg/mL
Procedure: LLC lung cancer cells were seeded in a 96-well cell culture plate at 3,000 cells per well and incubated at 37° C. in a 5% CO2 incubator for 24 h. […] The cultures were then incubated for another 48 h before measuring the absorbance at 570 nm.

H22-bearing mice = type: in vivo
Procedure: A homogenate suspension of H22 hepatoma solid tumors was injected subcutaneously under the axilla of 65 healthy male C57 mice to create a solid tumor model. Once all mouse tumors averaged a volume of about 230 mm3, mice were randomized into groups based on tumor volume and were administered the respective drugs or drug solvents via oral gavage or intraperitoneal injection for 25 consecutive days. Longest and shortest diameters of tumors were measured every three days to calculate tumor volume, and mouse weights were recorded every three days. At the end of the experiment, tumors, spleens, and thymuses were harvested and weighed to calculate tumor, spleen, and thymus indices.
Based on previous experimental results, Ganoderma lucidum polysaccharide GLP-1 was administered at a low dose of 50 mg/kg and a high dose of 150 mg/kg as shown in Table 20.
(§1) Where TRTV is the relative tumor volume in the experimental group, and CRTV is the relative tumor volume in the model control group. Relative tumor volume (RTV)=Vt/V0, where Vt is the tumor volume on day t of dosing, and V0 is the tumor volume at the time of grouping.
(§2) Where T represents the average tumor weight in the treatment group, and C represents the average tumor weight in the model control group.
(§3) Spleen and thymus organ coefficients: After the last dose, spleen, thymus, and tumor weights are measured, and organ coefficients are calculated.
(§4) Tumor index (%)=(tumor weight/body weight)×100%.
(§5) Immune organ index (mg/g)=(organ mass/body weight)×1000.
Statistical analyses were performed using SPSS 17.0, with the significance level set at P≤0.05. Measurement data were expressed as mean±standard deviation (x±s). Normality and homogeneity of variance were tested using Leven's test. If data met normality and homogeneity of variance (P>0.05), one-way ANOVA and LSD test were used for statistical analysis. […] If the Kruskal-Wallis test was statistically significant (P<0.05), comparison analysis was performed using Dunnett's Test (a non-parametric method). Evaluation considered statistical differences and biological significance.

[1] = test system: 4T1 breast tumor-bearing mice; type: in vivo, BALB/c mice
Procedure: A suspension of 4T1 breast cancer cells was injected subcutaneously into the left shoulder back of 60 healthy female BALB/c mice to create solid tumor models. When the mean tumor volume reached approximately 190 mm^3, the mice were randomized into groups based on tumor volume, and were administered the respective drugs or drug solvents via oral gavage or intraperitoneal injection over 18 consecutive days. Longest and shortest diameters of tumors were measured every three days to calculate tumor volume, and mouse weights were recorded every three days. At the end of the experiment, tumors, spleens, and thymuses were harvested and weighed to calculate tumor, spleen, and thymus indices.
Based on previous experimental results, Ganoderma lucidum polysaccharide GLP-1 was administered at a low dose of 50 mg/kg and a high dose of 150 mg/kg as shown in Table 27.
as §1, §2, §3, §4, §5
Statistical analyses were performed using SPSS 17.0, with the significance level set at P≤0.05. Measurement data were expressed as mean±standard deviation (˜±s). Normality and homogeneity of variance were tested using Leven's test. If data met normality and homogeneity of variance (P>0.05), one-way ANOVA and LSD test were used for statistical analysis. […] If the Kruskal-Wallis test was statistically significant (P<0.05), comparison analysis was performed using Dunnett's Test (a non-parametric method). Evaluation considered statistical differences and biological significance.

LLC-bearing mice = conditions: cisplatin 4 mg/kg, Kanglaite 1404 mg/kg
[2] = cisplatin 3 mg/kg, GLP-1 low-dose 50 mg/kg
[3] = blood, flow cytometry, GLP-1 low-dose 130 mg/kg

With `N.N.[Cl][Pt][Cl]` [Cisplatin, cisplatin] the Inhibition rate (LLC cells) was 35.2%, the Survival time (H22-bearing mice; 25 days of dosing, cisplatin 3 mg/kg, GLP-1 low-dose 50 mg/kg) was 25 ± 0 days and the “Tumor growth inhibition rate vs. the model control group” value (H22-bearing mice; H22-bearing mice, end of experiment, cisplatin alone) was 84.2%. The “Tumor growth inhibition rate compared to the model control group” value (H22-bearing mice; by tumor weight, cisplatin 3 mg/kg, GLP-1 low-dose 50 mg/kg) was 84.2%, the Mortality rate (H22-bearing mice; [2]) was 0% and the Number of deaths (H22-bearing mice; [2]) was 0. It also gave a Number of deaths ([1]; 4T1 breast tumor-bearing mice, 8 animals, cisplatin 4 mg/kg i.p.) of 1, a Survival time ([1]; 4T1 breast tumor-bearing mice, 18-day dosing, cisplatin 4 mg/kg i.p.) of 17.1 ± 2.3 days and a Tumor volume ([1]; 4T1 breast tumor-bearing mice, D0, cisplatin 4 mg/kg i.p.) of 190.5 ± 34.8 mm^3. The “Tumor growth inhibition rate vs. the model control group” value ([1]; 4T1 breast tumor-bearing mice, end of experiment, cisplatin 4 mg/kg i.p.) was 71.6%, the “Tumor growth inhibition rate compared to the model control group” value ([1]; by tumor weight, cisplatin 4 mg/kg, GLP-1 low-dose 50 mg/kg) was 71.6% and the Tumor volume (LLC-bearing mice; D1, GLP-1 low-dose 130 mg/kg) was 94.99 mm^3. For the same compound, the Tumor volume (LLC-bearing mice; D4, GLP-1 low-dose 130 mg/kg) was 150.58 mm^3, the Tumor volume (LLC-bearing mice; D7, GLP-1 low-dose 130 mg/kg) was 8.91 mm^3 and the Tumor volume (LLC-bearing mice; D10, GLP-1 low-dose 130 mg/kg) was 6.51 mm^3. The Tumor volume (LLC-bearing mice; D13, GLP-1 low-dose 130 mg/kg) was 27.36 mm^3, the Tumor volume (LLC-bearing mice; D16, GLP-1 low-dose 130 mg/kg) was 36.09 mm^3 and the Tumor volume (LLC-bearing mice; D19, GLP-1 low-dose 130 mg/kg) was 71.00 mm^3. For the same compound, the Tumor volume (LLC-bearing mice; D22, GLP-1 low-dose 130 mg/kg) was 824.01 mm^3, the Tumor volume (LLC-bearing mice; D25, GLP-1 low-dose 130 mg/kg) was 976.79 mm^3 and the Tumor histopathology (LLC-bearing mice; H&E, x200) was “large areas of necrosis and hemorrhage were visible at the tumor center, with abundant tumor cells”. The Tumor coefficient (LLC-bearing mice; after last dose, GLP-1 low-dose 130 mg/kg) was 7.528 ± 2.567 %, the “CD3^+/CD4^+” value (LLC-bearing mice; [3]) was 0.093 ± 0.025 and the “CD3^+/CD8^+” value (LLC-bearing mice; [3]) was 1.571 ± 0.406. The “Tumor growth inhibition rate” value (LLC-bearing mice; by tumor weight vs model control, GLP-1 low-dose 130 mg/kg) was 61.6%, the “Blood WBC level compared to the model control group” value (LLC-bearing mice; GLP-1 low-dose 130 mg/kg) was “significantly decreased” and the “Body weight compared to the model control group” value (LLC-bearing mice; GLP-1 low-dose 130 mg/kg) was “significantly decreased after administration from D7 to D25”. The Mortality rate (LLC-bearing mice; GLP-1 low-dose 130 mg/kg) was 0%, the Number of deaths (LLC-bearing mice; GLP-1 low-dose 130 mg/kg) was 0 and the “Number of surviving animals” value (LLC-bearing mice; GLP-1 low-dose 130 mg/kg) was 8.
